# Tests used:
# [1] = test system: NCI-H460; test: Inhibitory concentration against human lung carcinoma cell line H460 after 48 hr in MTT assay; format: functional, cell-based; settings: NCI-H460, 48 h
# [2] = test system: NCI-H460; test: Percent of cells with COMET measured after single cell gel electrophoresis with the compound; format: functional, Homo sapiens
IC50 [1] [µg/mL],SMILES,Activity [2] [%]
0.25,c1ccc(P(CCP(c2ccccc2)c2ccccc2)c2ccccc2)cc1,–
0.05,COc1cccc2c1C(=O)c1c(O)c3c(c(O)c1C2=O)C[C@@](O)(C(=O)CO)C[C@@H]3O[C@H]1C[C@H](N)[C@H](O)[C@H](C)O1 [DOXORUBICIN],93.55

# Reference: ChEMBL document CHEMBL1144348, “Mechanism of cytotoxicity of copper(I) complexes of 1,2-bis(diphenylphosphino)ethane” (J Med Chem, 2005)
